Source: patent US10005771B2, “Bicyclic derivatives having β2 adrenergic agonist and M3 muscarinic antagonist activities” (Almirall, S.A., priority 2014, dated 2018)

What was measured:
[1] = biological target: T1, human muscarinic M3 receptors (Homo sapiens, UniProt P20309); assay: Human muscarinic M3 receptors binding assay ([3H]-NMS, CHO-K1 membranes); conditions: membranes from CHO-K1 cells, [3H]-NMS radioligand, two hours incubation
T1 construct: purchased Perkin Elmer; host or cells: CHO-K1 cells
Experimental: Test 2: Human Muscarinic M3 Receptors Binding Assays
The study of binding to human muscarinic M3 receptors was performed using commercial membranes (Perkin Elmer) prepared from CHO-K1 cells.
Radioligand binding experiments were conducted in 96 polypropylene well plates in a total volume of 200 μl. All reagents were dissolved in assay binding buffer (PBS with calcium and magnesium, SIGMA), except compounds that were dissolved in DMSO 100%. Non-specific binding (NSB) was measured in the presence of 1 μM atropine. [3H]-NM, used as the radioligand was incubated with membranes that express human muscarinic M3 at concentration of 4.9 μg/well.
After an incubation period of two hours with gentle shaking, 150 μl of the reaction mix were transferred to 96 GF/C filter plates (Millipore), previously treated with wash buffer (Tris 50 mM; NaCl 100 mM; pH: 7.4), containing 0.05% PEI (Sigma) during one hour. Bound and free [3H]-NMS were separated by rapid vacuum filtration in a manifold from Millipore and washed four times with ice cold wash buffer. After drying 30 min, 30 μl of OPTIPHASE Supermix were added to each well and radioactivity quantified using a Microbeta microplate scintillation counter.
The affinity of each test compound to the receptor was determined by using ten different concentrations ran in duplicate. IC50s were calculated using Activity Base software from IDBS and the four parameters-log equation.

[2] = biological target: T2, human adrenergic β2 receptor (Homo sapiens, UniProt P07550); assay: Human adrenergic β2 receptor binding assay (3H-CGP12177, Sf9 membranes); conditions: membranes from Sf9 cells, 0.6 nM 3H-CGP12177, 60 minutes at room temperature
T2 construct: purchased Perkin Elmer; host or cells: Sf9 cells
Experimental: Test 1: Human Adrenergic β1 and β2 Receptor Binding Assays
The study of binding to human adrenergic beta1 and beta2 receptors was performed using commercial membranes prepared from Sf9 cells where they are overexpressed (Perkin Elmer). The membrane suspensions (16 μg/well for beta1 and 5 μg/well for beta2) in assay buffer (75 mM Tris/HCl with 12.5 mM MgCl2 and 2 mM EDTA pH=7.4) were incubated with 0.14 or 0.6 nM of 3H-CGP12177 (Amersham) for beta 1 and beta 2 receptors respectively in a final volume of 250 μl, in GFC Multiscreen 96 well plates (Millipore) previously treated with assay buffer containing 0.3% PEI (Sigma). Non specific binding was measured in the presence of 1 μM propanolol. Incubation was maintained for 60 minutes at room temperature and with gentle shaking. The binding reactions were terminated by filtration and washing with 2.5 volumes of Tris/HCl 50 mM pH=7.4. The affinity of each test compound to the receptor was determined by using ten different concentrations ran in duplicate. IC50s were calculated using Activity Base software from IDBS and the four parameters-log equation.

T2 sequence (P07550 whole entry): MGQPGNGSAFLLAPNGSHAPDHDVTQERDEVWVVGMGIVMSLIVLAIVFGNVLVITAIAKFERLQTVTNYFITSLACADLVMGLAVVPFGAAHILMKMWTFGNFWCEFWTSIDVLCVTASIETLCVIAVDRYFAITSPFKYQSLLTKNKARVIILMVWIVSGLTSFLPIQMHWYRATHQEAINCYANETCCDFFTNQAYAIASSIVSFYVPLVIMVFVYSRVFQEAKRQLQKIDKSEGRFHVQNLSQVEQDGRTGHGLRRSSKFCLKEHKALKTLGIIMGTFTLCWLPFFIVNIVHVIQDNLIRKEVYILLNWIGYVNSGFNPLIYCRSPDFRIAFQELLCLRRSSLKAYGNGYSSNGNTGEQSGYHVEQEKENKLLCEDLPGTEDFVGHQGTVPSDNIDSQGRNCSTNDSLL
T1 sequence (P20309 whole entry): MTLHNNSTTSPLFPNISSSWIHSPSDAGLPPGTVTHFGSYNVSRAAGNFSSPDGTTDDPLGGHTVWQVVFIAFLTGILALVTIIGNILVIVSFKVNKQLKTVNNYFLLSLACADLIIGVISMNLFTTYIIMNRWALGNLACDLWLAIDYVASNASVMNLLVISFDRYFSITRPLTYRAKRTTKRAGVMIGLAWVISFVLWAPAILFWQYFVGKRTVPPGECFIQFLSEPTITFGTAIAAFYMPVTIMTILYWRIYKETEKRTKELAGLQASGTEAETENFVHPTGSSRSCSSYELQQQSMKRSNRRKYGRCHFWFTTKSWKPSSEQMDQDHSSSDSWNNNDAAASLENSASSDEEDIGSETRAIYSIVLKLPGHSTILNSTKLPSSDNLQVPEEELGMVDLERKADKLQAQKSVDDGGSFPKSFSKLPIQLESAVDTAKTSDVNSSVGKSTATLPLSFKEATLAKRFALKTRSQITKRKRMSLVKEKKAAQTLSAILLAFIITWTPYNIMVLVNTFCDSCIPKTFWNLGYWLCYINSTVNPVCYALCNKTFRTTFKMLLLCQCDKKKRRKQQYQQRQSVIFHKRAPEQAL

Row | Compound | IC50 [1] [nM] | IC50 [2] [nM]
1 | COc1cc(NC(=O)CCCc2ccc(C3(C(=O)O[C@H]4CN5CCC4CC5)CCCCC3)cc2)c(Cl)cc1CNC[C@H](O)c1ccc(O)c2[nH]c(=O)ccc12 [Example 31, (3R)-1-azabicyclo[2.2.2]oct-3-yl 1-[4-(4-{[2-chloro-4-({[(2R)-2-hydroxy-2-(8-hydroxy-2-oxo-1,2-dihydroquinolin-5-yl)ethyl]amino}methyl)-5-methoxyphenyl]amino}-4-oxobutyl)phenyl]cyclohexanecarboxylate] | 0.41 | 4
2 | COc1cc(NC(=O)CCCc2cccc(C3(C(=O)OCC4CCNCC4)CCCCC3)c2)c(Cl)cc1CNC[C@H](O)c1ccc(O)c2[nH]c(=O)ccc12 [Example 28, piperidin-4-ylmethyl 1-[3-(4-{[2-chloro-4-({[(2R)-2-hydroxy-2-(8-hydroxy-2-oxo-1,2-dihydroquinolin-5-yl)ethyl]amino}methyl)-5-methoxyphenyl]amino}-4-oxobutyl)phenyl]cyclohexanecarboxylate] | 0.36 | 2.2
3 | COc1cc(C(=O)OCCCc2cccc(C3(C(=O)O[C@H]4CN5CCC4CC5)CCCCC3)c2)c(Cl)cc1CNC[C@H](O)c1ccc(O)c2[nH]c(=O)ccc12 [Example 13, 3-[3-(1-{[(3R)-1-azabicyclo[2.2.2]oct-3-yloxy]carbonyl}cyclohexyl)phenyl]propyl 2-chloro-4-({[(2R)-2-hydroxy-2-(8-hydroxy-2-oxo-1,2-dihydroquinolin-5-yl)ethyl]amino}methyl)-5-methoxybenzoate] | 0.62 | 4.4
4 | COc1cc(C(=O)NCCCCc2cccc(C3(C(=O)O[C@H]4CN5CCC4CC5)CCCCC3)c2)c(Cl)cc1CNC[C@H](O)c1ccc(O)c2[nH]c(=O)ccc12 [Example 9, (3R)-1-azabicyclo[2.2.2]oct-3-yl 1-[3-(4-{[2-chloro-4-({[(2R)-2-hydroxy-2-(8-hydroxy-2-oxo-1,2-dihydroquinolin-5-yl)ethyl]amino}methyl)-5-methoxybenzoyl]amino}butyl)phenyl]cyclohexanecarboxylate] | 0.95 | 3.5
5 | O=C1c2ccc(CNC[C@H](O)c3ccc(O)c4[nH]c(=O)ccc34)cc2CN1CCCCc1cccc(C2(C(=O)O[C@H]3CN4CCC3CC4)CCCCC2)c1 [Example 23, (3R)-1-azabicyclo[2.2.2]oct-3-yl 1-(3-{4-[5-({[(2R)-2-hydroxy-2-(8-hydroxy-2-oxo-1,2-dihydroquinolin-5-yl)ethyl]amino}methyl)-1-oxo-1,3-dihydro-2H-isoindol-2-yl]butyl}phenyl)cyclohexanecarboxylate] | 0.61 | 26
6 | COc1cc(C(=O)N(C)CCCc2cccc(C3(C(=O)O[C@H]4CN5CCC4CC5)CCCCC3)c2)c(Cl)cc1CNC[C@H](O)c1ccc(O)c2[nH]c(=O)ccc12 [Example 12, (3R)-1-azabicyclo[2.2.2]oct-3-yl 1-(3-{3-[[2-chloro-4-({[(2R)-2-hydroxy-2-(8-hydroxy-2-oxo-1,2-dihydroquinolin-5-yl)ethyl]amino}methyl)-5-methoxybenzoyl](methyl)amino]propyl}phenyl)cyclohexanecarboxylate] | 2.1 | 10
7 | COc1cc(OCC(=O)OCCCc2cccc(C3(C(=O)O[C@H]4CN5CCC4CC5)CCCCC3)c2)c(Cl)cc1CNC[C@H](O)c1ccc(O)c2[nH]c(=O)ccc12 [Example 10, (3R)-1-azabicyclo[2.2.2]oct-3-yl 1-{3-[3-({[2-chloro-4-({[(2R)-2-hydroxy-2-(8-hydroxy-2-oxo-1,2-dihydroquinolin-5-yl)ethyl]amino}methyl)-5-methoxyphenoxy]acetyl}oxy)propyl]phenyl}cyclohexanecarboxylate] | 0.88 | 7.3
